According to patent US10004701B2, “Methods and compositions for treating infection” (UNIVERSITY OF ROCHESTER, priority 2012, dated 2018):
Where a name gives a salt, the structure may show the parent alone. Read-outs that look alike come from different tables or passages of the source.

Assays:
Experiment in all cases: AK assay 384-well format, Prestwick library screening
[1] = tested on: K. pneumoniae; assay type: cell-based, Klebsiella pneumoniae; settings: 50 μM final drug concentration; for fold induction at 50 µM: Klebsiella pneumoniae, 3 h
[2] = tested on: P. aeruginosa; assay type: cell-based, Pseudomonas aeruginosa; settings: 50 μM final drug concentration; for fold induction at 50 µM: Pseudomonas aeruginosa, 3 h
[3] = tested on: A. baumannii strain 98-37-09; assay type: cell-based, Acinetobacter baumannii; settings: 50 μM final drug concentration; for fold induction at 50 µM: Acinetobacter baumannii, 983709, 3 h
[4] = tested on: E. coli; assay type: cell-based, Escherichia coli; settings: 50 μM final drug concentration; for fold induction at 50 µM: Escherichia coli, 3 h
[5] = tested on: E. faecium; assay type: cell-based, Enterococcus faecium; settings: 50 μM final drug concentration; for fold induction at 50 µM: Enterococcus faecium, 3 h
[6] = tested on: S. aureus strain USA300-0114; assay type: cell-based, Staphylococcus aureus; settings: 50 μM final drug concentration; for fold induction at 50 µM: Staphylococcus aureus, USA300, 3 h
[7] = tested on: E. cloacae; assay type: cell-based, Enterobacter cloacae; settings: 50 μM final drug concentration; for fold induction at 50 µM: Enterobacter cloacae, 3 h
[8] = 384-well format, cutoff for positive-scoring molecules 3-fold increase
[9] = 384-well format, cutoff for positive-scoring molecules 3-fold increase, read-out: AK-based Prestwick Library Screening Results, K. pneumoniae (increase in extracellular AK activity)
[10] = 384-well format, cutoff for positive-scoring molecules 3-fold increase, read-out: AK-based Prestwick Library Screening Results, P. aeruginosa (increase in extracellular AK activity)
[11] = 384-well format, cutoff for positive-scoring molecules 3-fold increase, read-out: AK-based Prestwick Library Screening Results, A. baumannii (increase in extracellular AK activity)
[12] = 384-well format, cutoff for positive-scoring molecules 3-fold increase, read-out: AK-based Prestwick Library Screening Results, E. coli (increase in extracellular AK activity)
[13] = 384-well format, cutoff for positive-scoring molecules 3-fold increase, read-out: AK-based Prestwick Library Screening Results, E. faecium (increase in extracellular AK activity)
[14] = 384-well format, cutoff for positive-scoring molecules 3-fold increase, read-out: AK-based Prestwick Library Screening Results, S. aureus (increase in extracellular AK activity)
[15] = 384-well format, cutoff for positive-scoring molecules 3-fold increase, read-out: AK-based Prestwick Library Screening Results, E. cloacae (increase in extracellular AK activity)

What does the source list for `CCC1(c2cccc(O)c2)CCCCN(C)C1` (stereo not drawn) [Meptazinol hydrochloride]?
fold induction at 50 µM ([1]; planktonic K. pneumoniae, […], read-out: AK-based Prestwick library screening result, K. pneumoniae (fold increase in extracellular AK activity)): 0.9; fold induction at 50 µM ([2]; planktonic P. aeruginosa, […], read-out: AK-based Prestwick library screening result, P. aeruginosa (fold increase in extracellular AK activity)): 1.1; fold induction at 50 µM ([3]; planktonic A. baumannii, […], read-out: AK-based Prestwick library screening result, A. baumannii (fold increase in extracellular AK activity)): 1.1; fold induction at 50 µM ([4]; planktonic E. coli, […], read-out: AK-based Prestwick library screening result, E. coli (fold increase in extracellular AK activity)): 1.3; fold induction at 50 µM ([5]; planktonic E. faecium, […], read-out: AK-based Prestwick library screening result, E. faecium (fold increase in extracellular AK activity)): 1.1; fold induction at 50 µM ([6]; planktonic S. aureus, […], read-out: AK-based Prestwick library screening result, S. aureus (fold increase in extracellular AK activity)): 0.9; fold induction at 50 µM ([7]; planktonic E. cloacae, […], read-out: AK-based Prestwick library screening result, E. cloacae (fold increase in extracellular AK activity)): 1.4

For `O=C([O-])c1ccccc1-c1c2cc(Br)c(=O)cc-2oc2[c]([Hg+])c([O-])c(Br)cc12.[Na+].[Na+].[OH-]` [Merbromin], which “AK-based Prestwick Library Screening Results, K. pneumoniae (fold increase in extracellular AK activity)” value ([1]; […]) is on record?
The value was 0.4.

What about the “AK-based Prestwick Library Screening Results, P. aeruginosa (fold increase in extracellular AK activity)” value ([2]; […]) of the same compound?
The value was 0.4.

What about the “AK-based Prestwick Library Screening Results, A. baumannii (fold increase in extracellular AK activity)” value ([3]; […]) of the same compound?
Its value is 0.7.

What about the “AK-based Prestwick Library Screening Results, E. coli (fold increase in extracellular AK activity)” value ([4]; […]) of the same compound?
Its value is 0.5.

What about the “AK-based Prestwick Library Screening Results, E. faecium (fold increase in extracellular AK activity)” value ([5]; […]) of the same compound?
The value was 0.6.

What about the “AK-based Prestwick Library Screening Results, S. aureus (fold increase in extracellular AK activity)” value ([6]; […]) of the same compound?
The value was 0.2.

And the “AK-based Prestwick Library Screening Results, E. cloacae (fold increase in extracellular AK activity)” value ([7]; […])?
The value was 1.4.

Which results are given for `Nc1ccc(O)c(C(=O)O)c1` [Mesalamine]?
fold induction at 50 µM ([1]; planktonic K. pneumoniae, positive cutoff 3-fold increase, read-out: AK-based Prestwick library screening result, K. pneumoniae (fold increase in extracellular AK activity)): 0.7; fold induction at 50 µM ([2]; planktonic P. aeruginosa, positive cutoff 3-fold increase, read-out: AK-based Prestwick library screening result, P. aeruginosa (fold increase in extracellular AK activity)): 0.9; fold induction at 50 µM ([3]; planktonic A. baumannii, positive cutoff 3-fold increase, read-out: AK-based Prestwick library screening result, A. baumannii (fold increase in extracellular AK activity)): 0.9; fold induction at 50 µM ([4]; planktonic E. coli, positive cutoff 3-fold increase, read-out: AK-based Prestwick library screening result, E. coli (fold increase in extracellular AK activity)): 0.9; fold induction at 50 µM ([5]; planktonic E. faecium, positive cutoff 3-fold increase, read-out: AK-based Prestwick library screening result, E. faecium (fold increase in extracellular AK activity)): 0.9; fold induction at 50 µM ([6]; planktonic S. aureus, positive cutoff 3-fold increase, read-out: AK-based Prestwick library screening result, S. aureus (fold increase in extracellular AK activity)): 0.7; fold induction at 50 µM ([7]; planktonic E. cloacae, positive cutoff 3-fold increase, read-out: AK-based Prestwick library screening result, E. cloacae (fold increase in extracellular AK activity)): 1

How did the fold induction at 50 µM ([1]; planktonic, cutoff for positive 3-fold increase, read-out: AK-based Prestwick Library Screening Results, K. pneumoniae (fold increase in extracellular AK activity)) turn out when `CN1CCCCC1CCN1c2ccccc2Sc2ccc([S+](C)[O-])cc21` (stereo not drawn) [Mesoridazine besylate] was run?
The fold induction at 50 µM was 1.

And the fold induction at 50 µM ([2]; planktonic, cutoff for positive 3-fold increase, read-out: AK-based Prestwick Library Screening Results, P. aeruginosa (fold increase in extracellular AK activity))?
The fold induction at 50 µM was 1.2.

And the fold induction at 50 µM ([3]; planktonic, cutoff for positive 3-fold increase, read-out: AK-based Prestwick Library Screening Results, A. baumannii (fold increase in extracellular AK activity))?
Its fold induction at 50 µM is 1.

What about the fold induction at 50 µM ([4]; planktonic, cutoff for positive 3-fold increase, read-out: AK-based Prestwick Library Screening Results, E. coli (fold increase in extracellular AK activity)) of the same compound?
The fold induction at 50 µM was 1.1.

And the fold induction at 50 µM ([5]; planktonic, cutoff for positive 3-fold increase, read-out: AK-based Prestwick Library Screening Results, E. faecium (fold increase in extracellular AK activity))?
Its fold induction at 50 µM is 1.1.

And the fold induction at 50 µM ([6]; planktonic, cutoff for positive 3-fold increase, read-out: AK-based Prestwick Library Screening Results, S. aureus (fold increase in extracellular AK activity))?
Its fold induction at 50 µM is 1.3.

And the fold induction at 50 µM ([7]; planktonic, cutoff for positive 3-fold increase, read-out: AK-based Prestwick Library Screening Results, E. cloacae (fold increase in extracellular AK activity))?
Its fold induction at 50 µM is 1.3.

With `C=N[C@@H](C(=O)N[C@@H]1C(=O)N2[C@@H]1SC(C)(C)[C@@H]2C(=O)O)c1ccccc1` [Metampicillin sodium salt] as the compound, how does the fold induction at 50 µM ([1]; planktonic K. pneumoniae, 384-well, cutoff for positive-scoring molecules 3-fold increase, read-out: AK-based Prestwick Library Screening Results: K. pneumoniae (increase in extracellular AK activity)) read?
Its fold induction at 50 µM is 1.

And the fold induction at 50 µM ([2]; planktonic P. aeruginosa, 384-well, cutoff for positive-scoring molecules 3-fold increase, read-out: AK-based Prestwick Library Screening Results: P. aeruginosa (increase in extracellular AK activity))?
Its fold induction at 50 µM is 1.3.

And the fold induction at 50 µM ([3]; planktonic A. baumannii, 384-well, cutoff for positive-scoring molecules 3-fold increase, read-out: AK-based Prestwick Library Screening Results: A. baumannii (increase in extracellular AK activity))?
The fold induction at 50 µM was 1.1.

And the fold induction at 50 µM ([4]; planktonic E. coli, 384-well, cutoff for positive-scoring molecules 3-fold increase, read-out: AK-based Prestwick Library Screening Results: E. coli (increase in extracellular AK activity))?
Its fold induction at 50 µM is 16.8.

What about the fold induction at 50 µM ([5]; planktonic E. faecium, 384-well, cutoff for positive-scoring molecules 3-fold increase, read-out: AK-based Prestwick Library Screening Results: E. faecium (increase in extracellular AK activity)) of the same compound?
The fold induction at 50 µM was 1.6.

What about the fold induction at 50 µM ([6]; planktonic S. aureus, 384-well, cutoff for positive-scoring molecules 3-fold increase, read-out: AK-based Prestwick Library Screening Results: S. aureus (increase in extracellular AK activity)) of the same compound?
Its fold induction at 50 µM is 1.3.

What about the fold induction at 50 µM ([7]; planktonic E. cloacae, 384-well, cutoff for positive-scoring molecules 3-fold increase, read-out: AK-based Prestwick Library Screening Results: E. cloacae (increase in extracellular AK activity)) of the same compound?
The fold induction at 50 µM was 4.3.

For `CNCC(O)c1ccc(O)c(OC)c1.Cl` (stereo not drawn) [Metanephrine hydrochloride DL], which “AK-based Prestwick Library Screening Results, K. pneumoniae (increase in extracellular AK activity)” value [1, 8] is on record?
Its value is 1.0.

What about the “AK-based Prestwick Library Screening Results, P. aeruginosa (increase in extracellular AK activity)” value [2, 8] of the same compound?
Its value is 1.1.

And the “AK-based Prestwick Library Screening Results, A. baumannii (increase in extracellular AK activity)” value [3, 8]?
The value was 1.1.

What about the “AK-based Prestwick Library Screening Results, E. coli (increase in extracellular AK activity)” value [4, 8] of the same compound?
The value was 1.3.

And the “AK-based Prestwick Library Screening Results, E. faecium (increase in extracellular AK activity)” value [5, 8]?
Its value is 1.0.

And the “AK-based Prestwick Library Screening Results, S. aureus (increase in extracellular AK activity)” value [6, 8]?
Its value is 1.2.

What about the “AK-based Prestwick Library Screening Results, E. cloacae (increase in extracellular AK activity)” value [7, 8] of the same compound?
Its value is 1.3.

How did the fold induction at 50 µM [1, 9] turn out when `C[C@H](N)[C@H](O)c1cccc(O)c1` [Metaraminol bitartrate] was run?
The fold induction at 50 µM was 0.8.

And the fold induction at 50 µM [2, 10]?
The fold induction at 50 µM was 0.8.

What about the fold induction at 50 µM [3, 11] of the same compound?
Its fold induction at 50 µM is 0.9.

What about the fold induction at 50 µM [4, 12] of the same compound?
The fold induction at 50 µM was 1.

What about the fold induction at 50 µM [5, 13] of the same compound?
Its fold induction at 50 µM is 1.

And the fold induction at 50 µM [6, 14]?
Its fold induction at 50 µM is 0.7.

What about the fold induction at 50 µM [7, 15] of the same compound?
The fold induction at 50 µM was 1.3.

For `CN1C[C@H](CNC(=O)OCc2ccccc2)C[C@@H]2c3cccc4c3c(cn4C)C[C@H]21` [Metergoline], which fold induction at 50 µM ([1]; planktonic K. pneumoniae, cutoff for positive-scoring molecules 3-fold increase, read-out: AK-based Prestwick Library Screening Results, K. pneumoniae (increase in extracellular AK activity)) is on record?
The fold induction at 50 µM was 1.

What about the fold induction at 50 µM ([2]; planktonic P. aeruginosa, cutoff for positive-scoring molecules 3-fold increase, read-out: AK-based Prestwick Library Screening Results, P. aeruginosa (increase in extracellular AK activity)) of the same compound?
Its fold induction at 50 µM is 1.1.

And the fold induction at 50 µM ([3]; planktonic A. baumannii, cutoff for positive-scoring molecules 3-fold increase, read-out: AK-based Prestwick Library Screening Results, A. baumannii (increase in extracellular AK activity))?
The fold induction at 50 µM was 1.3.

And the fold induction at 50 µM ([4]; planktonic E. coli, cutoff for positive-scoring molecules 3-fold increase, read-out: AK-based Prestwick Library Screening Results, E. coli (increase in extracellular AK activity))?
The fold induction at 50 µM was 1.2.

And the fold induction at 50 µM ([5]; planktonic E. faecium, cutoff for positive-scoring molecules 3-fold increase, read-out: AK-based Prestwick Library Screening Results, E. faecium (increase in extracellular AK activity))?
The fold induction at 50 µM was 1.

What about the fold induction at 50 µM ([6]; planktonic S. aureus, cutoff for positive-scoring molecules 3-fold increase, read-out: AK-based Prestwick Library Screening Results, S. aureus (increase in extracellular AK activity)) of the same compound?
Its fold induction at 50 µM is 1.1.

What about the fold induction at 50 µM ([7]; planktonic E. cloacae, cutoff for positive-scoring molecules 3-fold increase, read-out: AK-based Prestwick Library Screening Results, E. cloacae (increase in extracellular AK activity)) of the same compound?
Its fold induction at 50 µM is 1.3.

For `CN(C)C(=N)N=C(N)N` [Metformin hydrochloride], which fold induction at 50 µM [1, 9] is on record?
The fold induction at 50 µM was 0.4.

What about the fold induction at 50 µM [2, 10] of the same compound?
Its fold induction at 50 µM is 0.3.

What about the fold induction at 50 µM [3, 11] of the same compound?
The fold induction at 50 µM was 0.4.

What about the fold induction at 50 µM [4, 12] of the same compound?
The fold induction at 50 µM was 0.5.

What about the fold induction at 50 µM [5, 13] of the same compound?
The fold induction at 50 µM was 0.8.

And the fold induction at 50 µM [6, 14]?
The fold induction at 50 µM was 0.4.

What about the fold induction at 50 µM [7, 15] of the same compound?
The fold induction at 50 µM was 0.3.
